Assay results: the supplement of paper PMC10307832

Experiments:
Assay in all cases: relative viability (nuclei count vs DMSO), 5 days (fraction); higher = more cells survive
Doramapimod + Alpelisib = compound: Cc1ccc(-n2nc(C(C)(C)C)cc2NC(=O)Nc2ccc(OCCN3CCOCC3)c3ccccc23)cc1 [Doramapimod] + Cc1nc(NC(=O)N2CCC[C@H]2C(N)=O)sc1-c1ccnc(C(C)(C)C(F)(F)F)c1 [Alpelisib] (partner 2 µM)
Summary of the method: (§1)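 Lung cancer cell lines in 1536-well plates got either a single drug or a fixed anchor-drug dose together with five library-drug doses (not always all listed) in √10 steps, by pin tool, on the day after seeding. Nuclei were counted after 5 days, and relative viability is the treated-to-vehicle ratio of nuclei counts. Values are medians of duplicate plates.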

RAF265 + Trametinib = compound: Cn1c(Nc2ccc(C(F)(F)F)cc2)nc2cc(Oc3ccnc(-c4ncc(C(F)(F)F)[nH]4)c3)ccc21 [RAF265] + CC(=O)Nc1cccc(-n2c(=O)n(C3CC3)c(=O)c3c(Nc4ccc(I)cc4F)n(C)c(=O)c(C)c32)c1 [Trametinib] (partner 0.02 µM)
Summary of the method: as §1

Doramapimod + Navitoclax = compound: Cc1ccc(-n2nc(C(C)(C)C)cc2NC(=O)Nc2ccc(OCCN3CCOCC3)c3ccccc23)cc1 [Doramapimod] + CC1(C)CCC(c2ccc(Cl)cc2)=C(CN2CCN(c3ccc(C(=O)NS(=O)(=O)c4ccc(N[C@H](CCN5CCOCC5)CSc5ccccc5)c(S(=O)(=O)C(F)(F)F)c4)cc3)CC2)C1 [Navitoclax] (partner 0.5 µM)
Summary of the method: as §1

IPA-3 + Foretinib = compound: C1=CC=C2C(=C1)C=CC(=C2SSC3=C(C=CC4=CC=CC=C43)O)O [IPA-3] + COc1cc2c(Oc3ccc(NC(=O)C4(C(=O)Nc5ccc(F)cc5)CC4)cc3F)ccnc2cc1OCCCN1CCOCC1 [Foretinib] (partner 0.25 µM)
Summary of the method: as §1

Row | Cell Line | relative viability (Doramapimod + Alpelisib; first compound 0.02 µM) | relative viability (Doramapimod + Alpelisib; first compound 0.06325 µM) | relative viability (Doramapimod + Alpelisib; first compound 0.2 µM) | relative viability (Doramapimod + Alpelisib; first compound 0.6325 µM) | relative viability (Doramapimod + Alpelisib; first compound 2 µM) | relative viability (RAF265 + Trametinib; first compound 0.01 µM) | relative viability (RAF265 + Trametinib; first compound 0.03162 µM) | relative viability (RAF265 + Trametinib; first compound 0.1 µM) | relative viability (RAF265 + Trametinib; first compound 0.3162 µM) | relative viability (RAF265 + Trametinib; first compound 1 µM) | relative viability (Doramapimod + Navitoclax; first compound 0.02 µM) | relative viability (Doramapimod + Navitoclax; first compound 0.06325 µM) | relative viability (Doramapimod + Navitoclax; first compound 0.2 µM) | relative viability (Doramapimod + Navitoclax; first compound 0.6325 µM) | relative viability (Doramapimod + Navitoclax; first compound 2 µM) | relative viability (IPA-3 + Foretinib; first compound 0.2 µM) | relative viability (IPA-3 + Foretinib; first compound 0.6325 µM) | relative viability (IPA-3 + Foretinib; first compound 2 µM) | relative viability (IPA-3 + Foretinib; first compound 6.325 µM) | relative viability (IPA-3 + Foretinib; first compound 20 µM)
1 | HCC-44 | 0.811 | 0.764 | 0.756 | 0.76 | 0.701 | 0.938 | 1.02 | 1.08 | 1.01 | 0.966 | 1 | 0.986 | 0.986 | 1.14 | 0.979 |  |  |  |  | 
2 | HCC-78 | 0.288 | 0.327 | 0.325 | 0.343 | 0.285 | 0.79 | 0.913 | 0.728 | 0.705 | 0.537 | 0.834 | 0.81 | 0.81 | 0.874 | 0.777 | 0.555 | 0.611 | 0.606 | 0.668 | 0.655
3 | HCC-366 | 0.403 | 0.325 | 0.38 | 0.39 | 0.299 | 0.414 | 0.302 | 0.264 | 0.251 | 0.165 | 1.05 | 1 | 1.03 | 0.978 | 0.901 | 0.929 | 0.851 | 0.911 | 0.833 | 0.856
4 | HCC-827 | 0.931 | 1.01 | 0.97 | 1.01 | 0.612 | 0.592 | 0.483 | 0.544 |  | 0.362 | 1.01 | 0.959 | 0.984 | 1 | 0.829 | 1.04 | 1.04 | 1.08 | 0.952 | 0.947
5 | HOP-62 | 0.898 | 1.14 | 0.896 | 0.975 | 0.874 | 0.468 | 0.404 | 0.406 | 0.379 | 0.218 | 1.1 | 1.1 | 1.17 | 1.04 | 1.05 | 1.28 | 1.04 | 1.21 | 1.09 | 1.19
6 | IA-LM | 0.658 | 0.728 | 0.693 | 0.73 | 0.669 |  |  |  |  |  | 0.676 | 0.567 | 0.804 | 0.807 | 0.577 | 1.24 | 0.989 | 1.16 | 1.05 | 1.23
7 | LC-2-ad | 0.943 | 0.995 | 0.884 | 0.888 | 0.835 | 0.931 | 0.958 | 1.01 | 0.839 | 0.432 | 0.399 | 0.342 | 0.377 | 0.422 | 0.357 | 0.986 | 0.934 | 0.832 | 0.938 | 1.03
8 | LCLC-97TM1 | 0.205 | 0.221 | 0.275 | 0.266 | 0.212 | 0.225 | 0.151 | 0.149 | 0.16 | 0.0901 | 0.372 | 0.434 | 0.525 | 0.51 | 0.371 | 0.958 | 0.928 | 0.915 | 0.861 | 0.958
9 | LCLC-103H | 0.998 | 0.917 | 0.961 | 0.966 | 0.973 | 0.679 | 0.689 | 0.609 | 0.638 | 0.465 |  |  |  |  |  | 0.908 | 0.862 | 0.756 | 0.725 | 0.775
10 | NCI-H358 | 0.885 | 0.653 | 0.768 | 0.918 | 0.799 | 0.152 | 0.115 | 0.116 | 0.127 | 0.129 |  |  |  |  |  | 0.815 | 0.622 | 0.713 | 0.732 | 0.721
11 | NCI-H522 |  |  |  |  |  | 0.743 | 0.77 | 0.613 | 0.679 | 0.657 |  |  |  |  |  |  |  |  |  | 
12 | NCI-H650 | 1.16 | 1.17 | 1.23 | 1.34 | 1.23 | 1.05 | 0.972 | 1.05 | 0.569 | 0.328 |  |  |  |  |  | 1.11 | 0.97 | 1.11 | 1.03 | 1.2
13 | NCI-H661 | 0.593 | 0.732 | 0.618 | 1.04 | 0.515 | 0.596 | 0.484 | 0.371 | 0.332 | 0.339 |  |  |  |  |  | 1.01 | 0.988 | 0.995 | 0.964 | 0.997
14 | NCI-H1299 | 1.12 | 1.13 | 1.1 | 1.1 | 1.01 |  |  |  |  |  | 1.1 | 1.13 | 1.12 | 1.05 | 1.09 | 1.1 | 1.07 | 1.17 | 0.678 | 1.06
15 | NCI-H1563 | 0.859 | 0.912 | 0.893 | 1 | 0.802 |  |  |  |  |  |  |  |  |  |  | 0.996 | 0.87 | 1.01 | 1.01 | 0.867
16 | NCI-H1623 |  |  |  |  |  |  |  |  |  |  |  |  |  |  |  | 0.97 | 0.899 | 0.878 | 0.815 | 0.923
17 | NCI-H1648 |  |  |  |  |  | 0.534 | 0.455 | 0.535 | 0.387 | 0.29 |  |  |  |  |  |  |  |  |  | 
18 | NCI-H1650 |  |  |  |  |  | 0.786 | 0.708 | 0.568 | 0.419 | 0.43 | 1.09 | 1.2 | 1.23 | 1.63 | 1.2 | 1.27 | 1.29 | 1.39 | 1.03 | 1.45
19 | NCI-H1703 | 0.363 | 0.336 | 0.323 | 0.393 | 0.278 |  |  |  |  |  | 0.957 | 0.944 | 1.16 | 1.54 | 0.896 | 0.295 | 0.339 | 0.331 | 0.349 | 0.391
20 | NCI-H1792 | 0.606 | 0.658 | 0.578 | 0.713 | 0.521 | 0.485 | 0.408 | 0.361 | 0.218 | 0.0679 | 0.601 | 0.809 | 0.672 | 0.617 | 0.577 |  |  |  |  | 
21 | NCI-H2342 |  |  |  |  |  | 0.75 | 0.715 | 0.786 | 0.698 | 0.682 |  |  |  |  |  | 1.11 | 1.04 | 1.15 | 1.19 | 1.3
22 | SW 900 |  |  |  |  |  | 0.83 | 0.994 | 0.836 | 0.679 | 0.52 |  |  |  |  |  | 1.04 | 0.792 | 0.975 | 1.14 | 1.08
